Experimental data: patent US10517853B2, “Methods for treating epilepsy” (PTC Therapeutics, Inc., priority 2015, dated 2019)

Legend:
CYP2C8 = biological target: T1, CYP2C8 (Homo sapiens, UniProt P10632); assay: CYP2C8 inhibition; type: in vitro ADME
T1 sequence (P10632 1-490): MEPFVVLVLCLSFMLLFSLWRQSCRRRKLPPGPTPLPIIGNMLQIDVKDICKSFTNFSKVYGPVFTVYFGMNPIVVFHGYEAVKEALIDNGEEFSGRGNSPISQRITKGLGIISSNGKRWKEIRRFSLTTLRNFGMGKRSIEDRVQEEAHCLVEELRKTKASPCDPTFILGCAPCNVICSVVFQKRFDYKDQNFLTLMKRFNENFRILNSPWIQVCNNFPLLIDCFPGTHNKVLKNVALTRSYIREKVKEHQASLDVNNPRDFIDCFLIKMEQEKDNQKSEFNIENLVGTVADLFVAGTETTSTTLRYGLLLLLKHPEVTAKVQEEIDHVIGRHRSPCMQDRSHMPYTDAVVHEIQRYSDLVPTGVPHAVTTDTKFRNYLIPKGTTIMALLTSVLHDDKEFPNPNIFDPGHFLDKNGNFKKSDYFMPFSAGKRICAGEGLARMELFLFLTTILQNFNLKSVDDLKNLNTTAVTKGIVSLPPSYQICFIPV

[1] = tested on: SCN1A nonsense mutation W192X (UAG premature stop); assay: Luciferase reporter readthrough assay, SCN1A nonsense mutation W192X construct in 293H cells; type: cell-based; details: 293H cells transfected with construct SCN1A-Trp192x; decreasing concentrations starting at 3 uM; 24 hours; FIG. 4
Source text: (§1) Luciferase reporter constructs were generated to evaluate readthrough activity of compounds at premature stop codons present in SCN1A and CDKL5 mRNA sequences. FIG. 1 is a schematic of the reporter construct used to monitor readthrough activity of SCN1A nonsense mutation W192X (UAG premature stop). FIG. 2 is a schematic of the reporter construct used to monitor readthrough activity of CDKL5 nonsense mutation R59X (UGA premature stop). FIG. 3 is a schematic of the reporter construct used to monitor readthrough activity of CDKL5 nonsense mutation R550X (UGA premature stop). In each of the constructs, luciferase reporter is flanked by a 3XHA epitope tag at the amino-terminus and a FLAG epitope tag at the C-terminus. An intron from the TPI gene was inserted in the luciferase gene. Sequences from SCN1A (see FIG. 1) and CDKL5 (see FIGS. 2 and 3) harboring disease-associated nonsense mutations were introduced in-frame with the reporter sequence such that readthrough at the premature stop codon results in the production of a functional luciferase protein.
(§2) 293H cells were transfected with either construct SCN1A-Trp192x (FIG. 1), construct CDKL5-R59X (FIG. 2), or construct CDKL5-R550X (FIG. 3). […] The ability of ataluren to promote readthrough at the premature stop codon in each of the constructs was measured and reported as the relative light units (y-axis). […]

[2] = tested on: CDKL5 nonsense mutation R550X (UGA premature stop); assay: Luciferase reporter readthrough assay, CDKL5 nonsense mutation R550X construct in 293H cells; type: cell-based; details: 293H cells transfected with construct CDKL5-R550X; decreasing concentrations starting at 3 uM; 24 hours; FIG. 5
Source text: as §1, §2

[3] = tested on: CDKL5 nonsense mutation R59X (UGA premature stop); assay: Luciferase reporter readthrough assay, CDKL5 nonsense mutation R59X construct in 293H cells; type: cell-based; details: 293H cells transfected with construct CDKL5-R59X; decreasing concentrations starting at 3 uM; 24 hours; FIG. 5
Source text: as §1, §2

CYP2C9 = CYP2C9 (Homo sapiens, UniProt P11712); assay: CYP2C9 inhibition; type: in vitro ADME
Sequence of CYP2C9 (P11712 whole entry): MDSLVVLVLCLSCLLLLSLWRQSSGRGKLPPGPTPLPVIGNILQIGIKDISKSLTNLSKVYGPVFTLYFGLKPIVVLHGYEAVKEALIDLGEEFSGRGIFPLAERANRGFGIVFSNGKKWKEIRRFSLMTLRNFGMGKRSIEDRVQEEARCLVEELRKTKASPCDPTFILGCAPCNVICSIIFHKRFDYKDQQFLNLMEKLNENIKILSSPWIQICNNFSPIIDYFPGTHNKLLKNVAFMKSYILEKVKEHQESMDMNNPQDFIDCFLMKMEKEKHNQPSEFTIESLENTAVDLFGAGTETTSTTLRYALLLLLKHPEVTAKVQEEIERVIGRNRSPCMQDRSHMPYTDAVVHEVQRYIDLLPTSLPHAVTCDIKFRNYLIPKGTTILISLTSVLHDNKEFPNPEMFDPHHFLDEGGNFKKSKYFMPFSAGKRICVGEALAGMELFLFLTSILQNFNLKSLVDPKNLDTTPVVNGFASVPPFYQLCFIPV

Structure (SMILES): O=C(O)c1cccc(-c2noc(-c3ccccc3F)n2)c1 [ataluren, 3-[5-(2-fluoro-phenyl)-[1,2,4]oxadiazol-3-yl]-benzoic acid]
- inhibition of CYP2C8 (CYP2C8): weak inhibitor
- readthrough at the premature stop codon (luciferase, relative light units; fold increase compared to DMSO) [1]: promotes concentration-dependent readthrough
- readthrough at the premature stop codon (luciferase, relative light units; fold increase compared to DMSO) [2]: promotes concentration-dependent readthrough
- readthrough at the premature stop codon (luciferase, relative light units; fold increase compared to DMSO) [3]: promotes concentration-dependent readthrough
- inhibition of CYP2C9 (CYP2C9): weak inhibitor
